By IC50 is commonly meant the concentration at which inhibition is half-maximal. As a reminder, the IC10 is the concentration at which the effect reaches the 10% level. Higher therefore signals weaker potency. For orientation: IC90 means the concentration at which the effect reaches the 90% level. A low value points to an effect from little substance.

This note sets out measurements from patent US20250099488A1, “ANTI-PARASITE COMPOUNDS” (AUSTRALIAN NATIONAL UNIVERSITY, priority 2022, published 2025).

Each structure is given as a SMILES string. pIC50: −log10 of the molar value. Read-outs that look alike come from different tables or passages of the source.

One data set relates to asexual P. falciparum. Put plainly: Plasmodium growth inhibition assay (SYBR Safe), asexual stages. It counts as cell-based, Plasmodium falciparum. The conditions noted are these: for Inhibitory effect on proliferation of asexual stages: FIG. 11D, cholesterol in ethanol, DMSO or ethyl acetate, DHEA. Here is the method: Compounds or solvent controls (DMSO, ethanol, or ethyl acetate) were serially diluted 2-fold across flat-bottom 96-well plates. Complete culture media without compound was used as a negative control. Chloroquine (100-200 nM) {Sigma C6628} was used as a positive control to determine background fluorescence. The parasitaemia of a culture containing predominantly ring stage parasites was counted by Giemsa smear. The parasitaemia was adjusted to 1% by addition of fresh uRBCs, and added to the plate at a final haematocrit of 1%, with 200 μL per well. The plates were incubated at 37° C. under humid microaerophilic conditions. […] Fluorescence was read at 490 nm excitation/520 nm emission on a FLUOstar Optima fluorescence plate reader {BMG Labtech}.
Growth inhibition data were normalised by subtracting background fluorescence from a no-growth control (high drug concentration or time=0 measurement as specified), and expressed as a percentage of the growth in the negative control (media alone or solvent control) either at the indicated timepoint, or to the highest measurement reached during the assay.
P. falciparum asexual parasite assays begun with ring-stage parasites at 1% parasitaemia and 1% haematocrit. 200 nM chloroquine (Sigma C6628) was used as a no-growth control. […] 17]; 8 (2):e54974).
(§1) Growth inhibition data were normalised by subtracting background fluorescence, luminescence, absorbance, or percentage of cells from a no-growth or no-viability control (high drug concentration, no-parasite control, or time=0 measurement as specified), and expressed as a percentage of the growth or cell percentage in the negative control (culture media alone or solvent control) at the indicated timepoint (or to the highest measurement reached during the assay for FIG. 15B).

Data set [1] has as its system P. falciparum CAM3.IIREV (susceptible). The experiment in a line: Ring stage survival assay, susceptible revertant strain. It counts as cell-based, Plasmodium falciparum. The conditions noted are these: 700 nM for six hours, then 66 hours without drug. The source says:
(§2) The inventors tested these compounds in a ring stage survival assay, which allows the detection of resistant parasites against this […] drug and is the standard method for investigating resistance to artemisinin and its derivatives (Witkowski B, Menard D, Amaratunga C. Fairhurst R. Ring-stage Survival Assays (RSA) to evaluate the in-vitro and ex-vivo susceptibility of Plasmodium falciparum to artemisinins Procedure. Inst Pasteur du Cambodge—Natl Institutes Heal [Internet]. 2013 Sep. 11 [cited 2022 Jun. 19]; Procedure; available from: https://www.wwarn.org/sites/default/files/INV10-Standard-Operating-Procedure-Ring-Stage-Survival-Assays.pdf). This assay involves a short treatment window against newly-invaded ring stage parasites, followed by removal of drug pressure to mimic the clearance of the drug from plasma. We utilised two parasite strains: an isolate from Cambodia (CAM3.II) with a mutated Kelch-13 conferring resistance, and a genetically modified revertant of this strain (CAM3.IIREV) conferring drug susceptibility (Straimer J, Gnädig N F, Witkowski B, Amaratunga C, Duru V, Ramadani A P, et al. K13-propeller mutations confer artemisinin resistance in Plasmodium falciparum clinical isolates. Science (80-) [Internet]. 2015 Jan. 23 [cited 2022 Jun. 19]; 347(6220):428-31; available from: https://www.science.org/doi/10.1126/science.1260867).
(§3) Following tight synchronisation, CAM3.II and CAM3.IIREV ring stage parasites (0-3 hours post invasion) at 1% parasitaemia and 2% haematocrit were incubated with 700 nM of compounds or solvent-only controls for exactly six hours, before removing the drug, thoroughly washing in RPMI, and returning to culture conditions for a further 66 hours. Some cells were treated with 700 nM artesunate for 72 hours as a no-growth control. DNA replication (indicating growth) was measured at the specified time using SYBR Safe DNA Gel Stain. Microscope slide smears of each condition were stained with 10% v/v Giemsa and examined under a light microscope (1 000× magnification); with ‘viable’ (morphologically normal) and ‘non-viable’ (morphologically aberrant; vacuolated or pyknotic) parasites distinguished according to standard protocol (Witkowski B, Menard D, Amaratunga C, Fairhurst R. Ring-stage Survival Assays (RSA) to evaluate the in-vitro and ex-vivo susceptibility of Plasmodium falciparum to artemisinins Procedure. Inst Pasteur du Cambodge—Natl Institutes Heal [Internet]. 2013 Sep. 11 [cited 2022 Jun. 19]; Procedure. Available from: https://www.wwam.org/sites/default/files/INV10-Standard-Operating-Procedure-Ring-Stage-Survival-Assays.pdf). Images were captured using a Leica ICC50 camera, with a resolution of 76 nm per pixel.

The subject of data set [2] is P. falciparum CAM3.II (mutated Kelch-13, resistant). The experiment in a line: Ring stage survival assay, resistant strain. The conditions noted are these: 700 nM for six hours, then 66 hours without drug; for Parasite survival (DNA replication): FIG. 17B. The format is cell-based, Plasmodium falciparum.
Excerpt: as §2, §3

In data set [3] the test system is P. falciparum gametocytes (stage III-IV). The experiment in a line: Gametocyte viability assay (MitoTracker, flow cytometry). The format is cell-based, Plasmodium falciparum. The settings on record: Plasmodium falciparum, read-out: IC50, gametocyte viability.
Excerpt: Gametocyte assays begun eight days post-invasion (Stage III-IV).
as §1
A general note: Flow cytometry measures light scatter and fluorescence of single cells or particles in a stream.

The nature of data set [4]: HEK293 cell viability assay (MTT). The format is cell-based, human. The conditions noted are these: human, 96 hours, FIG. 16H / FIG. 18C, read-out: IC50, HEK293 cytotoxicity. Here is the method: HEK293 cell viability assays began with 5000 cells per well. 10 μg/mL cycloheximide was used as a no-growth control. Metabolic capacity (indicating viability) was measured by incubation with 0.45 mg/mL methylthiazolyldiphenyl-tetrazolium bromide (MTT; Sigma M2128) for two hours followed by crystal solubilisation in SDS.

Data set [5] deals with P. berghei liver stage schizonts. Put plainly: P. berghei liver stage parasite size and number (fluorescence microscopy) in Huh7 cells. It counts as cell-based, Plasmodium berghei. The settings on record: 3 μM, 48 hours post-infection, vs DMSO. The procedure: (§4) Huh7 cells were seeded at a density of 10 000 cells per well, or 20 000 per collagen-coated coverslip. […] Uninfected wells served as a control for background luminescence. […] Data are presented as a percentage of the size or parasite number of the solvent control to normalize for differences between experiments. For cell images presented in the figure, images were collected under optimal exposure settings to ensure features were visible. Individual cells were cropped from larger images with Fiji ImageJ, and the brightness was adjusted while ensuring that no fluorescence was removed. No other manipulations were performed.

A further data set has as its system P. berghei liver stages. The experiment in a line: P. berghei liver stage growth assay (luciferase) in Huh7 cells. It counts as cell-based, Plasmodium berghei. The settings on record: Plasmodium berghei, Huh-7; 48 hours of treatment from sporozoite inoculation, Huh7 cells, FIG. 16A. Here is the method:
as §4, §1

The test system of data set [6] is Toxoplasma gondii tachyzoites. The experiment in a line: Toxoplasma growth inhibition assay (tdTomato fluorescence). The format is cell-based. The settings on record: Toxoplasma gondii, 72 h, read-out: IC5 against T. gondii. Here is the method: Fluorescent Toxoplasma gondii parasites were inoculated into an optical bottom 96-well plate containing confluent human foreskin fibroblast (HFF) host cells at a density of 2000 parasites/well, with a serial dilution of each compound, or media/DMSO alone. Plates were measured daily with a FluoStar Optima fluorescence plate reader at 540 nm excitation/590 nm emission for seven days, and the background fluorescence from the time 0 reading was subtracted from all other measurements.
Fluorescence was measured daily with a FluoStar Optima fluorescence plate reader for one week, and the background fluorescence from the time 0 reading was subtracted from all other measurements.
as §1

[7] abbreviates: Plasmodium falciparum, 24 hours, starting with ring-stage parasites, FIG. 14B, read-out: IC50.
Where [8] appears, read: Plasmodium falciparum, 72 hours, FIG. 18B, read-out: IC50.

With `Cc1ncc([N+](=O)[O-])n1CCOC(=O)CCC(=O)O[C@H]1CC[C@H]2[C@@H]3CC=C4C[C@@H](O)CC[C@]4(C)[C@H]3CC[C@]12C` [BC62D, 3β-Hydroxyandrost-5-en-17β-yl succinate-metronidazole diester], in the data set on asexual P. falciparum (Plasmodium falciparum, Example 4, FIG. 20B, read-out: IC50), the pIC50 is 4.62.

`CC(C)CCC[C@@H](C)[C@H]1CC[C@H]2[C@@H]3CC=C4C[C@@H](OC(=O)CCC(=O)OC(C)C)CC[C@]4(C)[C@H]3CC[C@]12C` [C-3-link, 3β-Succinate-(propan-2-yldiester)-cholest-5-ene]: the “No inhibition of parasite growth up to (concentration)” value in the data set with asexual P. falciparum (24 hours) was above 200 µM. Besides, the pIC50 in the data set with asexual P. falciparum (setting [7]) is below 3.70.

In the case of `COc1cc(NC(C)CCCNC(=O)CCC(=O)O[C@H]2CC[C@@]3(C)C(=CC[C@H]4[C@@H]5CC[C@H]([C@H](C)CCCC(C)C)[C@@]5(C)CC[C@@H]43)C2)c2ncccc2c1` (stereo partly drawn) [C-3-prim, Cholester-3-yl succinate-primaquine amide], the “No inhibition of parasite growth up to (concentration)” value with asexual P. falciparum (24 hours) was above 100 µM. The pIC50 in the data set with asexual P. falciparum (setting [7]) is below 3.70.

Consider `C[C@H]1[C@H](OC(=O)CCC(=O)O[C@H]2CC[C@H]3[C@@H]4CC=C5C[C@@H](O)CC[C@]5(C)[C@H]4CC[C@]23C)O[C@@H]2O[C@]3(C)CC[C@H]4[C@H](C)CC[C@@H]1[C@@]24OO3` [C-17-art, 3β-Hydroxyandrost-5-en-17β-yl succinate-artesunate ester], for which the “Morphology in Giemsa-stained smears” value in data set [1] is “only morphologically aberrant parasites were present”; in data set [2], “only aberrant, non-viable parasites were visible”. The “Parasite survival (DNA replication)” value in data set [2] was “kills all cells”.

With `C[C@]12CC[C@H](O)CC1=CC[C@@H]1[C@@H]2CC[C@]2(C)C(=O)CC[C@@H]12` [DHEA, 3β-Hydroxyandrost-5-en-17-one, reference compound], the “Inhibitory effect on proliferation of asexual stages” value in the data set with asexual P. falciparum was “influences proliferation, although at relatively high concentrations”. Further, the pIC50 with asexual P. falciparum (setting [8]) is 3.82.

As to `Cc1ncc([N+](=O)[O-])n1CCO` [Metronidazole, metronidazole, reference compound], the IC50 entry with asexual P. falciparum (Example 4, FIG. 20B) was “almost no effect in the range tested”.

As for `CC1CCC2C(C)C(OC(=O)CCC(=O)OC3CCC4C5CC=C6CC(O)CCC6(C)C5CCC34C)OC3OC4(C)CCC1C32OO4` (stereo not drawn) [PAYb076a], the “Effect of steroid-artesunate conjugates on proliferation” value in the data set with asexual P. falciparum (72 hrs, FIG. 13B/13C) is “better activity than coupling via C3”.

Regarding `CC(C)OC(=O)CCC(=O)O[C@@H]1O[C@@H]2O[C@]3(C)CC[C@H]4[C@H](C)CC[C@@H]([C@H]1C)[C@@]24OO3` [art-link, Propan-2-yl artesunate ester], the “Morphology in Giemsa-stained smears” value in data set [1] was “only morphologically aberrant parasites were present”. In addition, in data set [2], the “Morphology in Giemsa-stained smears” value was “a combination of morphologically normal parasites and morphologically aberrant pyknotic or vacuolated forms”; the “Parasite survival (DNA replication)” value is given as “showed a trend to improved efficacy over artesunate”.

Take `CC(C)CCC[C@@H](C)[C@H]1CC[C@H]2[C@@H]3CC=C4C[C@@H](O)CC[C@]4(C)[C@H]3CC[C@]12C` [cholesterol, Cholesterol, reference compound]: the “Inhibitory effect on proliferation of asexual stages” value in the data set on asexual P. falciparum is recorded as “No inhibitory effect could be detected in the concentration range being used”. In addition, the pIC50 in the data set with asexual P. falciparum (setting [8]) is below 3.40.

Consider `CC(C)(C)OOC(C)(C)C` [di-ter-butyl peroxide, di-tert-butyl peroxide, reference compound], for which, in the data set with asexual P. falciparum (72 hours, FIG. 18B, read-out: IC50), the pIC50 is below 4.60.

Regarding `COc1cc(NC(C)CCCNC(=O)CCC(=O)OC(C)C)c2ncccc2c1` (stereo not drawn) [prim-link, Propan-2-yl succinate-primaquine amide], the pIC50 in data set [3] (48 hours of incubation, stage III-IV, FIG. 14C) is below 4.00. Besides, in data set [4] (HEK293 cells), the half-inhibitory concentration (IC50) at 96 h is 13.3 µM.

With `COc1cc(NC(C)CCCN)c2ncccc2c1` (stereo not drawn) [primaquine, reference compound], the pIC50 was 4.20 in data set [3] (48 h); 5.49 in the data set on asexual P. falciparum (Plasmodium falciparum, 72 h); 5.54 in the data set on P. berghei liver stages; 5.01 in data set [6]. Also, in data set [5], the “Smaller parasite size (reduction)” value worked out at 61%. For the same molecule, the “Hill slope of inhibitory curve” value was −1.65 with asexual P. falciparum (24 hours) and −1.48 in the data set with asexual P. falciparum (72 hours). This molecule showed an IC10 with asexual P. falciparum (FIG. 8B, Example 2) of 12 µM. Moreover, the IC90 in the data set on asexual P. falciparum (Plasmodium falciparum, 24 h) came out at 41 µM. Moreover, the IC50 at 96 h in data set [4] turned out to be 10.6 µM.
